Laboratory results from patent US20030232102A1, “Total glycosides of paeony, method to prepare the same and uses thereof” (priority 2001, published 2003).

Tests used:
[1] = system: patients with rheumatoid arthritis; assay: Phase II clinical study: adverse (reverse) drug effects and drug toleration; format: in vivo, human
Description: (§1) It was a multiple-centered, randomized, parallel, positive controlled Phrase II clinical study.
The eneral condition of patients was evaluated on each visit and follow-up survey. Patients were inquired of symptoms and signs into a 26-item list of side effect. Once a possible side effect occurred, the relevant information as time, severity, frequency, duration, method used in release and its result were recorded by the doctor. […] A second disease occurred during the study was not counted in as a side effect. Index of overall side-effect is as below:
2=upset of medium severity, interfere with the daily life of patient
3=sever unwell, obviously affect a normal daily life and may need a bed rest.
4=life threatening side effect
Investigators should score individually on drug toleration in each patient after the test base on the following criteria:
0=bear sever side effect(s) and need to halt the test
1=side effects(s) of medium severity, relevant treatments is adopted.
2=mild side effect(s), no treatment was needed

[2] = system: patients with rheumatoid arthritis; assay: Phase II clinical study: laboratory tests and immune system perimeters; format: in vivo, human; set-up: ESR / CRP / RF / Ig A / Ig G / Laboratory blood tests: Hg / Laboratory blood tests: WBC / Laboratory blood tests: BP / Laboratory blood tests: Cr / Laboratory blood tests: BUN: unit not given here; conditions: for Laboratory blood tests: Hg / Laboratory blood tests: WBC / Laboratory blood tests: BP / Laboratory blood tests: BUN / Laboratory blood tests: Cr / Laboratory blood tests: GPT: overall group
Description: as §1
10) Routine blood and urine exam: Hemoglobin, platelet count, biochemical serum test and routine urine test
11) Blood Sedimentation (Norm. M: 15 mm/hr F: 20 mm/hr)
12) Serum Rheumatoid Factor (Method: Latex Agglutination Test, LAT): The maximum titer value were required for positive reaction patients. All centers use the same standard agents in one product batch.
13) C-reactive protein (quantitative method): All centers use the same standard agents in one product batch.

[3] = double-blind, 4 weeks, column 1
[4] = double-blind, 12 weeks, column 1
[5] = double-blind, 12 weeks, column 2
[6] = overall group, 4 weeks, column 1
[7] = overall group, 4 weeks, column 2
[8] = overall group, 4 weeks, column 3
[9] = overall group, 8 weeks, column 1
[10] = overall group, 8 weeks, column 2
[11] = overall group, 8 weeks, column 3
[12] = overall group, 12 weeks, column 1
[13] = overall group, 12 weeks, column 2
[14] = overall group, 24 weeks, column 1
[15] = overall group, 24 weeks, column 2
[16] = 4 weeks (row order of Table 65)
[17] = 8 weeks (row order of Table 65)
[18] = 12 weeks (row order of Table 65)
[19] = 24 weeks (row order of Table 65)
[20] = 4 weeks (row order of Table 67)
[21] = 8 weeks (row order of Table 67)
[22] = 12 weeks (row order of Table 67)
[23] = 24 weeks (row order of Table 67)
[24] = period of treatment 0 (row order of Table 67)
[25] = period of treatment 0 (row order of Table 65)

Laboratory blood tests: Hg ([2]; 4 weeks): 10.96 ± 3.65
Laboratory blood tests: WBC ([2]; 4 weeks): 7.47 ± 2.09
Laboratory blood tests: BP [2, 20]: 94.28 ± 31.42
Laboratory blood tests: BUN [2, 20]: 3.32 ± 1.11
Laboratory blood tests: Cr [2, 20]: 82.82 ± 27.64
Laboratory blood tests: GPT [2, 20]: Norm.
Laboratory blood tests: Hg ([2]; 8 weeks): 9.26 ± 3.09
Laboratory blood tests: WBC ([2]; 8 weeks): 8.47 ± 2.82
Laboratory blood tests: BP [2, 21]: 108.73 ± 36.21
Laboratory blood tests: BUN [2, 21]: 1.97 ± 0.65
Laboratory blood tests: Cr [2, 21]: 98.89 ± 32.93
Laboratory blood tests: GPT [2, 21]: Norm.
Laboratory blood tests: Hg ([2]; 12 weeks): 9.24 ± 2.98
Laboratory blood tests: WBC ([2]; 12 weeks): 8.42 ± 2.57
Laboratory blood tests: BP [2, 22]: 110.66 ± 37.48
Laboratory blood tests: BUN [2, 22]: 1.82 ± 0.47
Laboratory blood tests: Cr [2, 22]: 102.03 ± 36.86
Laboratory blood tests: GPT [2, 22]: Norm.
Laboratory blood tests: Hg ([2]; 24 weeks): 10.78 ± 3.10
Laboratory blood tests: WBC ([2]; 24 weeks): 7.28 ± 2.67
Laboratory blood tests: BP [2, 23]: 168.48 ± 30.78
Laboratory blood tests: BUN [2, 23]: 3.38 ± 1.01
Laboratory blood tests: Cr [2, 23]: 78.66 ± 26.42
Laboratory blood tests: GPT [2, 23]: Norm.
Laboratory blood tests: Hg ([2]; period of treatment 0): 11.28 ± 3.72
Laboratory blood tests: WBC ([2]; period of treatment 0): 7.96 ± 2.61
Laboratory blood tests: BP [2, 24]: 98.97 ± 32.86
Laboratory blood tests: BUN [2, 24]: 3.96 ± 1.32
Laboratory blood tests: Cr [2, 24]: 74.86 ± 28.28
Laboratory blood tests: GPT [2, 24]: Norm.
SMILES: CN(Cc1cnc2nc(N)nc(N)c2n1)c1ccc(C(=O)N[C@@H](CCC(=O)O)C(=O)O)cc1 [MTX, Methotrexate]
Events of reverse drug effects: Dizziness [1, 3]: 3
Events of reverse drug effects: Headache [1, 3]: 1
Events of reverse drug effects: Bad appetite [1, 4]: 2
Events of reverse drug effects: Dizziness [1, 4]: 1
Events of reverse drug effects: Frequency of micturition [1, 4]: 1
Events of reverse drug effects: Headache [1, 4]: 1
Events of reverse drug effects: Lethargy [1, 4]: 1
Events of reverse drug effects: Nausea [1, 4]: 4
Events of reverse drug effects: Bad appetite [1, 5]: 2
Events of reverse drug effects: Insomnia [1, 5]: 1
Events of reverse drug effects: Nausea [1, 5]: 4
Events of reverse drug effects: Abd distension [1, 6]: 7
Events of reverse drug effects: Bad appetite [1, 6]: 27
Events of reverse drug effects: Burning heart [1, 6]: 1
Events of reverse drug effects: Constipation [1, 6]: 3
Events of reverse drug effects: Diarrhea [1, 6]: 1
Events of reverse drug effects: Dizziness [1, 6]: 6
Events of reverse drug effects: Headache [1, 6]: 1
Events of reverse drug effects: Lethargy [1, 6]: 1
Events of reverse drug effects: Nausea [1, 6]: 14
Events of reverse drug effects: Palpitation [1, 6]: 3
Events of reverse drug effects: Stomachache [1, 6]: 1
Events of reverse drug effects: Stomatitis [1, 6]: 2
Events of reverse drug effects: Vomiting [1, 6]: 3
Events of reverse drug effects: Abd distension [1, 7]: 5
Events of reverse drug effects: Bad appetite [1, 7]: 3
Events of reverse drug effects: Diarrhea [1, 7]: 1
Events of reverse drug effects: Headache [1, 7]: 1
Events of reverse drug effects: Nausea [1, 7]: 8
Events of reverse drug effects: Stomachache [1, 7]: 1
Events of reverse drug effects: Burning heart [1, 8]: 2
Events of reverse drug effects: Stomachache [1, 8]: 1
Events of reverse drug effects: Abd distension [1, 9]: 11
Events of reverse drug effects: Bad appetite [1, 9]: 28
Events of reverse drug effects: Burning heart [1, 9]: 3
Events of reverse drug effects: Constipation [1, 9]: 3
Events of reverse drug effects: Diarrhea [1, 9]: 1
Events of reverse drug effects: Dizziness [1, 9]: 4
Events of reverse drug effects: Headache [1, 9]: 2
Events of reverse drug effects: Insomnia [1, 9]: 5
Events of reverse drug effects: Lethargy [1, 9]: 2
Events of reverse drug effects: Nausea [1, 9]: 16
Events of reverse drug effects: Palpitation [1, 9]: 3
Events of reverse drug effects: Stomatitis [1, 9]: 9
Events of reverse drug effects: Vomiting [1, 9]: 2
Events of reverse drug effects: Abd distension [1, 10]: 4
Events of reverse drug effects: Bad appetite [1, 10]: 5
Events of reverse drug effects: Burning heart [1, 10]: 1
Events of reverse drug effects: Headache [1, 10]: 1
Events of reverse drug effects: Nausea [1, 10]: 7
Events of reverse drug effects: Skin rash [1, 10]: 1
Events of reverse drug effects: Stomatitis [1, 10]: 1
Events of reverse drug effects: Vomiting [1, 10]: 1
Events of reverse drug effects: Abd distension [1, 11]: 1
Events of reverse drug effects: Bad appetite [1, 11]: 1
Events of reverse drug effects: Burning heart [1, 11]: 1
Events of reverse drug effects: Constipation [1, 11]: 1
Events of reverse drug effects: Abd distension [1, 12]: 15
Events of reverse drug effects: Bad appetite [1, 12]: 35
Events of reverse drug effects: Burning heart [1, 12]: 2
Events of reverse drug effects: Constipation [1, 12]: 2
Events of reverse drug effects: Diarrhea [1, 12]: 1
Events of reverse drug effects: Dizziness [1, 12]: 4
Events of reverse drug effects: Headache [1, 12]: 2
Events of reverse drug effects: Insomnia [1, 12]: 5
Events of reverse drug effects: Lethargy [1, 12]: 1
Events of reverse drug effects: Nausea [1, 12]: 25
Events of reverse drug effects: Palpitation [1, 12]: 2
Events of reverse drug effects: Skin rash [1, 12]: 1
Events of reverse drug effects: Stomatitis [1, 12]: 9
Events of reverse drug effects: Vomiting [1, 12]: 3
Events of reverse drug effects: Abd distension [1, 13]: 4
Events of reverse drug effects: Bad appetite [1, 13]: 3
Events of reverse drug effects: Headache [1, 13]: 1
Events of reverse drug effects: Insomnia [1, 13]: 1
Events of reverse drug effects: Nausea [1, 13]: 10
Events of reverse drug effects: Stomatitis [1, 13]: 1
Events of reverse drug effects: Burning heart ([1]; overall group, 12 weeks, column 3): 1
Events of reverse drug effects: Bad appetite [1, 14]: 3
Events of reverse drug effects: Dizziness [1, 14]: 1
Events of reverse drug effects: Headache [1, 14]: 2
Events of reverse drug effects: Insomnia [1, 14]: 1
Events of reverse drug effects: Nausea [1, 14]: 7
Events of reverse drug effects: Vomiting [1, 14]: 2
Events of reverse drug effects: Insomnia [1, 15]: 1
Events of reverse drug effects: Nausea [1, 15]: 2
Events of reverse drug effects: Vomiting [1, 15]: 1
CRP ([2]; 4 weeks): 27.97 ± 21.12
ESR ([2]; 4 weeks): 42.11 ± 38.68
Ig A [2, 16]: 3.64 ± 3.54
Ig G [2, 16]: 17.40 ± 6.59
RF [2, 16]: 1.87 ± 0.62
CRP ([2]; 8 weeks): 25.72 ± 19.42
ESR ([2]; 8 weeks): 44.92 ± 78.36
Ig A [2, 17]: 3.98 ± 3.56
Ig G [2, 17]: 17.62 ± 6.37
Ig M [2, 17]: 2.76 ± 2.24
RF [2, 17]: 1.59 ± 0.61
CRP ([2]; 12 weeks): 22.31 ± 18.91
ESR ([2]; 12 weeks): 29.96 ± 20.48
Ig A [2, 18]: 3.39 ± 3.15
Ig G [2, 18]: 16.47 ± 5.92
RF [2, 18]: 1.72 ± 0.56
CRP ([2]; 24 weeks): 27.12 ± 22.39
ESR ([2]; 24 weeks): 28.66 ± 20.96
Ig A [2, 19]: 2.35 ± 1.55
Ig G [2, 19]: 15.26 ± 6.37
Ig M [2, 19]: 1.57 ± 0.79
RF [2, 19]: 1.74 ± 0.63
CRP ([2]; period of treatment 0): 32.01 ± 22.75
ESR ([2]; period of treatment 0): 47.11 ± 26.19
Ig A [2, 25]: 3.62 ± 3.42
Ig G [2, 25]: 18.13 ± 7.12
RF [2, 25]: 1.93 ± 0.61
